Common to all, as to test: Kinase selectivity, DiscoverX scanMAX Kinase assay panel (% control)
What all share (format): binding

Test [1] deals with T1, kinases of the scanMAX Kinase assay panel (Homo sapiens, UniProt P27037).
T1 construct: purchased DiscoverX Co. (contract measurement) scanMAX Kinase assay panel
The note with it: ACVR2A; 1 uM. Put shortly: (§1)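 Compounds were tested at 1 uM (in DMSO) against each panel kinase. % control was calculated as (compound − positive control)/(negative control − positive control)×100, where the positive control gives 0% and DMSO gives 100%. Activity toward a kinase was called at % control <35%.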

Test [2] has as its target T2, kinases of the scanMAX Kinase assay panel (Homo sapiens, UniProt P42345).
T2 construct: purchased DiscoverX Co. (contract measurement) scanMAX Kinase assay panel
The note with it: MTOR; 1 uM. Put shortly:
as §1

Test [3] concerns the target T3, kinases of the scanMAX Kinase assay panel (Homo sapiens, UniProt P49761).
T3 construct: purchased DiscoverX Co. (contract measurement) scanMAX Kinase assay panel
The note with it: CLK3; 1 uM. Put shortly:
as §1

The target of test [4] is T4, kinases of the scanMAX Kinase assay panel (Homo sapiens, UniProt Q06418).
T4 construct: purchased DiscoverX Co. (contract measurement) scanMAX Kinase assay panel
T4 sequence (Q06418 41-890): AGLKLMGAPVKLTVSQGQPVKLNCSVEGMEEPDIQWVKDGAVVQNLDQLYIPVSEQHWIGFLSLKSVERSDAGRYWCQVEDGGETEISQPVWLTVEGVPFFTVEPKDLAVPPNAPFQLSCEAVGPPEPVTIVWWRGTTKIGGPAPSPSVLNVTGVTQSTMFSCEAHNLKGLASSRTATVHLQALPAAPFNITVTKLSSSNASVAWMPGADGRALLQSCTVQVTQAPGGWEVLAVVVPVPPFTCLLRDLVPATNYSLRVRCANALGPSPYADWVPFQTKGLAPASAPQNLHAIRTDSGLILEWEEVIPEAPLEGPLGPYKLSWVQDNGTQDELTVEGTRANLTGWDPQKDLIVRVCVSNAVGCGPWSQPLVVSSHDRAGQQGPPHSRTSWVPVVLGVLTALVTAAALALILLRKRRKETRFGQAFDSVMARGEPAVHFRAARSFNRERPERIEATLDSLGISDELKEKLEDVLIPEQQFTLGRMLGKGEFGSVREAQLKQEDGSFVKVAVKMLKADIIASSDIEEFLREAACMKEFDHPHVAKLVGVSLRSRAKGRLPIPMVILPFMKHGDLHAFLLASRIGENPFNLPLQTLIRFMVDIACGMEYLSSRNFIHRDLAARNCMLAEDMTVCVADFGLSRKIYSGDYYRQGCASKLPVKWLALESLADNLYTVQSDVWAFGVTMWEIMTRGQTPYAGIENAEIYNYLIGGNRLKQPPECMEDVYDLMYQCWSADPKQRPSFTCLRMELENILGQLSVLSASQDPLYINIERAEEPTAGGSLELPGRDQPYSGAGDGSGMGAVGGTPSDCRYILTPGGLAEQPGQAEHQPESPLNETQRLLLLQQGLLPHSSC
The note with it: kinase TYRO3; 1 uM in DMSO. An outline of the steps:
as §1

The target of test [5] is T5, kinases of the scanMAX Kinase assay panel (Homo sapiens, UniProt Q15746).
T5 construct: purchased DiscoverX Co. (contract measurement) scanMAX Kinase assay panel
T5 sequence (Q15746 whole entry): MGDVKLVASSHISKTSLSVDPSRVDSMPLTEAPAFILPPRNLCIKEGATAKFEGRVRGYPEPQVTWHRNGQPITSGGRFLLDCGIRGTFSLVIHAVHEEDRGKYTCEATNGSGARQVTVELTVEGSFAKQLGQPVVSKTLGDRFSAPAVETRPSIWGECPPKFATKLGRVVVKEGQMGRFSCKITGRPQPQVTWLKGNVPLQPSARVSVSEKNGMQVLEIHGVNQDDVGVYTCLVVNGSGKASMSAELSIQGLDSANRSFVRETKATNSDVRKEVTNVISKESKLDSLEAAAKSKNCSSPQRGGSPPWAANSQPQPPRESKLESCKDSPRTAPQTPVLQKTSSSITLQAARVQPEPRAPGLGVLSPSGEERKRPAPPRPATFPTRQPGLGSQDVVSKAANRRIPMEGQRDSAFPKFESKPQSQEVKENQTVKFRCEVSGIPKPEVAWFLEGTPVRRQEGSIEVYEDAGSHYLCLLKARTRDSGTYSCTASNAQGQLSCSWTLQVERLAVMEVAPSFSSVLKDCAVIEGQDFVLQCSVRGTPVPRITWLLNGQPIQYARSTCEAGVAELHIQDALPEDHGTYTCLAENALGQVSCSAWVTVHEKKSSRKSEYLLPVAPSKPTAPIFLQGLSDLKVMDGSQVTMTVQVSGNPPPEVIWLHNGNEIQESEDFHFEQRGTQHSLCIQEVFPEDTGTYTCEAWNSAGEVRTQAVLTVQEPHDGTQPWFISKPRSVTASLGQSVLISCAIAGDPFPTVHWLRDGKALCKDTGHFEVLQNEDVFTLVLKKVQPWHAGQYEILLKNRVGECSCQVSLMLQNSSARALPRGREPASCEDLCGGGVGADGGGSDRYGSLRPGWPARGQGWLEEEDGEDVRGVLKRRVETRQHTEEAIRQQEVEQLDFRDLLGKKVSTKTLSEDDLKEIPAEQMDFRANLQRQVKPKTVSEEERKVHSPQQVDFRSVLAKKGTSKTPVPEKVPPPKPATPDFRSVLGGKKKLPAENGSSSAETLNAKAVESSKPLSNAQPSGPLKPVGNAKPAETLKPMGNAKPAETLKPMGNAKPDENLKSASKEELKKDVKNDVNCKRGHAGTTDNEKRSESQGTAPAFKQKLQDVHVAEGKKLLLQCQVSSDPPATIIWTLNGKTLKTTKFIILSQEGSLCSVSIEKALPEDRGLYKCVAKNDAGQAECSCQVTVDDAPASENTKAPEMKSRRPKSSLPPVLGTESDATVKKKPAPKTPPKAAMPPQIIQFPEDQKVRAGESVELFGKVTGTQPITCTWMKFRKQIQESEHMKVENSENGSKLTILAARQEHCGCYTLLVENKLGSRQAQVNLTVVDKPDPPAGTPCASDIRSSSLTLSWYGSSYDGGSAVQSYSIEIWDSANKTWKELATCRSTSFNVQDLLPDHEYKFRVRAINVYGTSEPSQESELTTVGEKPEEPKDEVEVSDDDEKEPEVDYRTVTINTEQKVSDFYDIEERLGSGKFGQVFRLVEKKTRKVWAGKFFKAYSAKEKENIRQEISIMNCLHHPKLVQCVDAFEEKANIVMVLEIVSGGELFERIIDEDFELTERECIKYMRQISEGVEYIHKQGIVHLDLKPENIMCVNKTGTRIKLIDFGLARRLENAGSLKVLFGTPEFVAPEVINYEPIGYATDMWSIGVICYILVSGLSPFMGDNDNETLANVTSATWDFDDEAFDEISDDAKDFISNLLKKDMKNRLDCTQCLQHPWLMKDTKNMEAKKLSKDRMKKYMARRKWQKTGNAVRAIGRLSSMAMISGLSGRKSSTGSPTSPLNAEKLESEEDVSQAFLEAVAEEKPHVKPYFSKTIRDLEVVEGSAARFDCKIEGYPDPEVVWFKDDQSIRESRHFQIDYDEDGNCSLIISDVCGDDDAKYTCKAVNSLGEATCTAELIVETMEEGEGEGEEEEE
The note with it: MYLK; 1 uM. Put shortly:
as §1

For test [6], the target named is T6, kinases of the scanMAX Kinase assay panel (Homo sapiens, UniProt Q8TBX8).
T6 construct: purchased DiscoverX Co. (contract measurement) scanMAX Kinase assay panel
T6 sequence (Q8TBX8 1-421): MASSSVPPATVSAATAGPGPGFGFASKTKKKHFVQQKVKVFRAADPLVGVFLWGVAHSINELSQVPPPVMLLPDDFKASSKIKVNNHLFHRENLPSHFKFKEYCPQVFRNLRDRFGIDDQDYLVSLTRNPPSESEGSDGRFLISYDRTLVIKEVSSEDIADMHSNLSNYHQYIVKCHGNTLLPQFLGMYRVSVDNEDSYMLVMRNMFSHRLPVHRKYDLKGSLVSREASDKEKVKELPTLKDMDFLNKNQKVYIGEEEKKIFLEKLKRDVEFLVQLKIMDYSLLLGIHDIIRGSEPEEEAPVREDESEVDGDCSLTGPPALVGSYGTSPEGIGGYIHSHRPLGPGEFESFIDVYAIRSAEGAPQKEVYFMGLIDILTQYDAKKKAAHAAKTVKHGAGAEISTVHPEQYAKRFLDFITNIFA
The note with it: PIP5K2C; 1 uM. Put shortly:
as §1

Test [7] deals with T7, kinases of the scanMAX Kinase assay panel (Homo sapiens, UniProt Q9UKE5).
T7 construct: purchased DiscoverX Co. (contract measurement) scanMAX Kinase assay panel
T7 sequence (Q9UKE5 whole entry): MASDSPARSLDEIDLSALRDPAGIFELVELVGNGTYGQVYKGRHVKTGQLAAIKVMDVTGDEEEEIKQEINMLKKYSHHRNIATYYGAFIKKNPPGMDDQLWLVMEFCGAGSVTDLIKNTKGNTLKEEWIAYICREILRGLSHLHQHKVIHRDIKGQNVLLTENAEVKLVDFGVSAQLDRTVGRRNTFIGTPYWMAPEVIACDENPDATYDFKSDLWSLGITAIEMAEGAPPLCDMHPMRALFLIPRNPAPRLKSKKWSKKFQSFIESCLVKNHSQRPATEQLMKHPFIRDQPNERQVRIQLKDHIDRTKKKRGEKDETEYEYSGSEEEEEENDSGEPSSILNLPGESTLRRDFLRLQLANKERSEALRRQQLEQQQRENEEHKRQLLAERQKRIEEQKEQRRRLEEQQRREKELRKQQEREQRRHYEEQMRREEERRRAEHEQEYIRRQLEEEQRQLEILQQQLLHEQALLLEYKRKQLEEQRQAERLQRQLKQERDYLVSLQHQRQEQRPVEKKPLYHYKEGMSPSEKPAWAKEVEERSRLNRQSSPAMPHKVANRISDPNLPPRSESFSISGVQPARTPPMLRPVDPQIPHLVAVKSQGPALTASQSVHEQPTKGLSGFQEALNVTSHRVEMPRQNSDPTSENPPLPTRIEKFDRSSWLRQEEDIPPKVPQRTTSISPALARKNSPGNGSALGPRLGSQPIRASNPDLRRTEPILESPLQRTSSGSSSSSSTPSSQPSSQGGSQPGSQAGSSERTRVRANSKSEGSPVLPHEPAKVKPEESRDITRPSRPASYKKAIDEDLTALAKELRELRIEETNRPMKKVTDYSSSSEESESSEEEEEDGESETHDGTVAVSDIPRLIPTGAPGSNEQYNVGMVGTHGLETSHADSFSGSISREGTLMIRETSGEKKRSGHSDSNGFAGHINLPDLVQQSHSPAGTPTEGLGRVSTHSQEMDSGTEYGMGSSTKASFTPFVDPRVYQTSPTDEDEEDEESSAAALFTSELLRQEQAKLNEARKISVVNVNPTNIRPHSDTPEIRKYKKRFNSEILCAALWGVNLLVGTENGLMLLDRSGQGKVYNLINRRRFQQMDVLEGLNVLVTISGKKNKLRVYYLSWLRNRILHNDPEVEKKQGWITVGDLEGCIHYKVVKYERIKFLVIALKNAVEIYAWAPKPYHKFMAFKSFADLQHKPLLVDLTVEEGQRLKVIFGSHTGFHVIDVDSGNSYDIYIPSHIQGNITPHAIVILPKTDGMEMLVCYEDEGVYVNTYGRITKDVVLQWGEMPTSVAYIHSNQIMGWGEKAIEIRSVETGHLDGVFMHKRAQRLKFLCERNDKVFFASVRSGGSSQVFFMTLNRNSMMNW
The note with it: kinase TNIK; 1 uM in DMSO. Put shortly:
as §1

The values that follow come from US11208412B2 (DAEGU-GYEONGBUK MEDICAL INNOVATION FOUNDATION, priority 2017, dated 2021).

T3 sequence (P49761 whole entry): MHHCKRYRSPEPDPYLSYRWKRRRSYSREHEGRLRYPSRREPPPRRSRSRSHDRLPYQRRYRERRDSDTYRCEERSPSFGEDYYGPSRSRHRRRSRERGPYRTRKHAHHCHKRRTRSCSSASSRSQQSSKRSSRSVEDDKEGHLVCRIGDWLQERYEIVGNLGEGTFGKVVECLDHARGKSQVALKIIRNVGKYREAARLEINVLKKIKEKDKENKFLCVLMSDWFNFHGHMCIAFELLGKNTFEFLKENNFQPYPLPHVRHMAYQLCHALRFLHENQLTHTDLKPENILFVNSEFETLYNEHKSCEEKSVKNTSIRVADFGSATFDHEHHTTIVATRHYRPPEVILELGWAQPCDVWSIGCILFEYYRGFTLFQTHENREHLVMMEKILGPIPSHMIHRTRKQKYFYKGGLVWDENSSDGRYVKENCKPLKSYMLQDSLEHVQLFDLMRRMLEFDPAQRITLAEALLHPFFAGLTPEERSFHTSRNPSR
T1 sequence (P27037 20-513): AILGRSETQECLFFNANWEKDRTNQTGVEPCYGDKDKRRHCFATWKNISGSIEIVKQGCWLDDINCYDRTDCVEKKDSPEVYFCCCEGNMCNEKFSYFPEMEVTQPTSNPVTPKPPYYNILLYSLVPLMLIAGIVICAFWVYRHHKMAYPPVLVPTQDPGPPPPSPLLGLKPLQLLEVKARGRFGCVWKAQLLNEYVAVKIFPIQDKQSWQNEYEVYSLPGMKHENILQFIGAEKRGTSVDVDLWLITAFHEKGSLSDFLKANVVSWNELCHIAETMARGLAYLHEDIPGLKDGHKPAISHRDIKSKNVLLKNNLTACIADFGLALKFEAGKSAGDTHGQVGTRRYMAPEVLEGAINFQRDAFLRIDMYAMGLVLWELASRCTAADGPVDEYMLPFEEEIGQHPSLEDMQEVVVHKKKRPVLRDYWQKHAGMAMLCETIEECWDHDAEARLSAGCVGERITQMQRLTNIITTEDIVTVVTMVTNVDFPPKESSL

Take `CC1(Nc2nc(Nc3cnn([C@H]4CCN(C5COC5)C[C@@H]4F)c3Cl)nc3[nH]cc(C#N)c23)CC1` [Example 52, 2-((5-chloro-1-((3S,4S)-3-fluoro-1-(oxetane-3-yl)piperidine-4-yl)-1H-pyrazole-4-yl)amino)((1-methylcyclopropyl)amino)-7H-pyrrolo[2,3-d]pyrimidine-5-carbonitrile]: the remaining binding at 1 µM in test [1] came to 98%; in test [2], 66%; in test [3], 27%; in test [4], 45%; in test [5], 0.55%; in test [6], 0%. This molecule had a remaining binding at 1 µM in test [7] of 3.5%.

`CCNc1nc(Nc2ccc(C(=O)N3CCC(N4CCOCC4)CC3)cc2OC)nc2[nH]cc(C(F)(F)F)c12` [Example 104, (4-((4-(ethylamino)-5-(trifluoromethyl)-7H-pyrrolo[2,3-d]pyrimidine-2-yl)amino)-3-methoxyphenyl)(4-morpholinopiperidine-1-yl)methanone]: the remaining binding at 1 µM was determined as 100% in test [1]; 100% in test [2]; 4% in test [3]; 100% in test [4]; 0.95% in test [5]; 77% in test [6]. In test [7], this molecule had a remaining binding at 1 µM of 83%.

In the case of `CNc1nc(Nc2ccc(C(=O)N3CCOCC3)cc2OC)nc2[nH]cc(C#N)c12` [Example 1, 2-((2-methoxy-4-(morpholine-4-carbonyl)phenyl)amino)-4-(methylamino)-7H-pyrrolo[2,3-d]pyrimidine-5-carbonitrile], the remaining binding at 1 µM in test [1] worked out at 100%; in test [2], 100%; in test [3], 70%; in test [4] it was 100%; in test [5], 0%; in test [6], 4.5%. Further, the remaining binding at 1 µM in test [7] turned out to be 95%.
